Reference: the NIST ThermoML archive (doi:10.1021/je300670n)

Tests used:
[1] = Liquid; for mass density: 298.15 K, 101.33 kPa, Vibrating tube method; for vapor or sublimation pressure: Ebulliometric method (Recirculating still)
[2] = refractive index (Na D-line) (dimensionless); conditions: 101.33 kPa, Liquid, Standard Abbe refractometry
[3] = xn = mol fraction of the nth substance listed; conditions: 101 kPa, Liquid, Vibrating tube method
[4] = excess molar enthalpy (molar enthalpy of mixing); xn = mol fraction of the nth substance listed; conditions: 298.15 K, 101 kPa, Liquid, Flow calorimetry

CCOC(C)(C)CC [1,1-dimethylpropyl ethyl ether]
Conditions	mass density [kg/m3]
[1]	760.52

Conditions	refractive index	vapor or sublimation pressure [kPa]
[1], 324.31 K	–	17.7
[1], 331.83 K	–	24
[1], 343.83 K	–	37.6
[1], 345.82 K	–	40.3
[1], 349.21 K	–	45.4
[1], 351.71 K	–	49.5
[1], 355.12 K	–	55.5
[1], 357.39 K	–	59.9
[1], 358.01 K	–	61
[1], 358.09 K	–	61.3
[1], 359.96 K	–	65.1
[1], 362.13 K	–	69.7
[1], 364.42 K	–	74.9
[1], 366.44 K	–	79.6
[1], 367.36 K	–	81.8
[1], 368.16 K	–	83.8
[1], 373.7 K	–	98.9
[1], 374.41 K	–	101
[2], 293.15 K	1.39112	–
[2], 298.15 K	1.38858	–

CCOC(C)(C)CC [1,1-dimethylpropyl ethyl ether] + CCC(C)(C)O
[3]
Conditions	mass density [kg/m3]
297.7 K, x1 = 0.1005	798.8
297.71 K, x1 = 0.2006	793.2
297.71 K, x1 = 0.3013	788.2
297.71 K, x1 = 0.4018	783.4
297.71 K, x1 = 0.5013	778.9
297.71 K, x1 = 0.601	774.7
297.71 K, x1 = 0.7003	770.9
297.71 K, x1 = 0.8011	767.1
297.72 K, x1 = 0.9003	763.7

[4]
Conditions	excess molar enthalpy [kcal/mol]
x1 = 0.1005	0.0565
x1 = 0.2006	0.107
x1 = 0.3013	0.151
x1 = 0.4018	0.187
x1 = 0.5013	0.214
x1 = 0.601	0.23
x1 = 0.7003	0.232
x1 = 0.8011	0.215
x1 = 0.9003	0.159

CCOC(C)(C)CC [1,1-dimethylpropyl ethyl ether] + CCC(C)O
[3]
Conditions	mass density [kg/m3]
297.67 K, x1 = 0.7012	770.2
297.67 K, x1 = 0.8001	766.9
297.68 K, x1 = 0.5005	777.9
297.68 K, x1 = 0.6008	774
297.68 K, x1 = 0.899	763.8
297.69 K, x1 = 0.1011	796.8
297.69 K, x1 = 0.2007	791.6
297.69 K, x1 = 0.3008	786.6
297.69 K, x1 = 0.4013	782

[4]
Conditions	excess molar enthalpy [kcal/mol]
x1 = 0.1011	0.0648
x1 = 0.2007	0.123
x1 = 0.3008	0.172
x1 = 0.4013	0.208
x1 = 0.5005	0.229
x1 = 0.6008	0.236
x1 = 0.7012	0.226
x1 = 0.8001	0.196
x1 = 0.899	0.133

CCOC(C)(C)CC [1,1-dimethylpropyl ethyl ether] + CCCCO
mass density [kg/m3], [3]
Conditions	x1 = 0.101	x1 = 0.2005	x1 = 0.3022	x1 = 0.401	x1 = 0.5023	x1 = 0.6005	x1 = 0.7009	x1 = 0.7999	x1 = 0.902
297.7 K	801	796.1	–	786.6	782	–	–	–	764.8
297.71 K	–	–	791.1	–	–	777.5	773.3	769.2	–

[4]
Conditions	excess molar enthalpy [kcal/mol]
x1 = 0.101	0.0285
x1 = 0.2005	0.06
x1 = 0.3022	0.0905
x1 = 0.401	0.116
x1 = 0.5023	0.135
x1 = 0.6005	0.147
x1 = 0.7009	0.147
x1 = 0.7999	0.133
x1 = 0.902	0.0913

CCC(C)(C)O [2-methylbutan-2-ol]
Conditions	mass density [kg/m3]
[1]	805.29

Conditions	refractive index	vapor or sublimation pressure [kPa]
[1], 334.98 K	–	18.8
[1], 344.45 K	–	29.4
[1], 351.18 K	–	39.5
[1], 354.1 K	–	44.7
[1], 356.81 K	–	50.1
[1], 358.12 K	–	52.8
[1], 359.14 K	–	55
[1], 361.21 K	–	59.7
[1], 363.43 K	–	65.2
[1], 365.23 K	–	69.8
[1], 367.1 K	–	75
[1], 368.88 K	–	80.1
[1], 371.04 K	–	86.7
[1], 375.78 K	–	102.7
[2], 298.15 K	1.40248	–

CCCCO [butan-1-ol]
Conditions	mass density [kg/m3]
[1]	805.97

Conditions	refractive index	vapor or sublimation pressure [kPa]
[1], 345.91 K	–	15.6
[1], 358.05 K	–	27.4
[1], 359.46 K	–	29.4
[1], 366.26 K	–	39.3
[1], 369.57 K	–	45.1
[1], 372.02 K	–	49.8
[1], 374.43 K	–	54.9
[1], 376.72 K	–	60.1
[1], 378.46 K	–	64.2
[1], 380.74 K	–	70.2
[1], 382.55 K	–	75.1
[1], 384.3 K	–	80.1
[1], 385.78 K	–	84.6
[1], 390.41 K	–	100
[2], 298.15 K	1.3972	–

CCC(C)O (configuration not stated) [butan-2-ol]
Conditions	mass density [kg/m3]
[1]	802.71

Conditions	refractive index	vapor or sublimation pressure [kPa]
[1], 330.11 K	–	15.7
[1], 337.99 K	–	23.3
[1], 345.15 K	–	32.7
[1], 354.49 K	–	49.4
[1], 357.15 K	–	55.3
[1], 358.16 K	–	57.3
[1], 358.98 K	–	59.6
[1], 362.88 K	–	69.9
[1], 365.08 K	–	76.3
[1], 366.13 K	–	79.5
[1], 367.13 K	–	82.9
[1], 371.51 K	–	98.3
[1], 372.43 K	–	100.6
[2], 298.15 K	1.3951	–
